Structures are written as SMILES. Activity calls are given as the source filed them. No rule for the calls is given here.

The source of these data is PubChem BioAssay AID1259407 (Chemical Carcinogenesis Research Information System (CCRIS), 2018).

For the data set, the system named is CCRIS mutagenicity, Ames/micronucleus/aberration tests. As to the kind of experiment: CCRIS mutagenicity studies.
The mark [1] stands for this setting: Test System: AMES SALMONELLA TYPHIMURIUM, Strain/Indicator: TA98, Metabolic Activation: NONE, Method: PREINCUBATION
The mark [2] stands for this setting: Test System: AMES SALMONELLA TYPHIMURIUM, Strain/Indicator: TA100, Metabolic Activation: NONE, Method: PREINCUBATION
Where [3] appears, read: Test System: AMES SALMONELLA TYPHIMURIUM, Strain/Indicator: TA1535, Metabolic Activation: NONE, Method: PREINCUBATION
Setting [4] is: Test System: AMES SALMONELLA TYPHIMURIUM, Strain/Indicator: TA1537, Metabolic Activation: NONE, Method: PREINCUBATION

Consider `FC(F)(F)c1ccccc1Cl`, for which the mutagenic call reads like this: (Test System: AMES SALMONELLA TYPHIMURIUM, Strain/Indicator: TA97, Metabolic Activation: HAMSTER, LIVER, S-9, AROCLOR 1254 (10%), Method: PREINCUBATION) “inactive; negative”; (Test System: AMES SALMONELLA TYPHIMURIUM, Strain/Indicator: TA97, Metabolic Activation: HAMSTER, LIVER, S-9, AROCLOR 1254 (30%), Method: PREINCUBATION) “inactive; negative”; (Test System: AMES SALMONELLA TYPHIMURIUM, Strain/Indicator: TA97, Metabolic Activation: NONE, Method: PREINCUBATION) “inactive; negative”; (Test System: AMES SALMONELLA TYPHIMURIUM, Strain/Indicator: TA97, Metabolic Activation: RAT, LIVER, S-9, AROCLOR 1254 (10%), Method: PREINCUBATION) “inactive; negative”; (Test System: AMES SALMONELLA TYPHIMURIUM, Strain/Indicator: TA97, Metabolic Activation: RAT, LIVER, S-9, AROCLOR 1254 (30%), Method: PREINCUBATION) “inactive; negative”; (Test System: AMES SALMONELLA TYPHIMURIUM, Strain/Indicator: TA98, Metabolic Activation: HAMSTER, LIVER, S-9, AROCLOR 1254 (10%), Method: PREINCUBATION) “inactive; negative”. Besides, the mutagenic call was “inactive; negative” (Test System: AMES SALMONELLA TYPHIMURIUM, Strain/Indicator: TA98, Metabolic Activation: HAMSTER, LIVER, S-9, AROCLOR 1254 (30%), Method: PREINCUBATION); “inactive; negative” under setting [1]; “inactive; negative” (Test System: AMES SALMONELLA TYPHIMURIUM, Strain/Indicator: TA98, Metabolic Activation: NONE, Method: STANDARD PLATE); “inactive; negative” (Test System: AMES SALMONELLA TYPHIMURIUM, Strain/Indicator: TA98, Metabolic Activation: RAT, LIVER, S-9, AROCLOR 1254 (10%), Method: PREINCUBATION); “inactive; negative” (Test System: AMES SALMONELLA TYPHIMURIUM, Strain/Indicator: TA98, Metabolic Activation: RAT, LIVER, S-9, AROCLOR 1254 (30%), Method: PREINCUBATION); “inactive; negative” (Test System: AMES SALMONELLA TYPHIMURIUM, Strain/Indicator: TA98, Metabolic Activation: RAT, LIVER, S-9, AROCLOR 1254, Method: STANDARD PLATE). The mutagenic call by setting is: (Test System: AMES SALMONELLA TYPHIMURIUM, Strain/Indicator: TA100, Metabolic Activation: HAMSTER, LIVER, S-9, AROCLOR 1254 (10%), Method: PREINCUBATION) “inactive; negative”; (Test System: AMES SALMONELLA TYPHIMURIUM, Strain/Indicator: TA100, Metabolic Activation: HAMSTER, LIVER, S-9, AROCLOR 1254 (30%), Method: PREINCUBATION) “inactive; negative”; under setting [2], “inactive; negative”; (Test System: AMES SALMONELLA TYPHIMURIUM, Strain/Indicator: TA100, Metabolic Activation: NONE, Method: STANDARD PLATE) “inactive; negative”; (Test System: AMES SALMONELLA TYPHIMURIUM, Strain/Indicator: TA100, Metabolic Activation: RAT, LIVER, S-9, AROCLOR 1254 (10%), Method: PREINCUBATION) “inactive; negative”; (Test System: AMES SALMONELLA TYPHIMURIUM, Strain/Indicator: TA100, Metabolic Activation: RAT, LIVER, S-9, AROCLOR 1254 (30%), Method: PREINCUBATION) “inactive; negative”. Further, the mutagenic call is, setting by setting: (Test System: AMES SALMONELLA TYPHIMURIUM, Strain/Indicator: TA100, Metabolic Activation: RAT, LIVER, S-9, AROCLOR 1254, Method: STANDARD PLATE) “inactive; negative”; (Test System: AMES SALMONELLA TYPHIMURIUM, Strain/Indicator: TA1535, Metabolic Activation: HAMSTER, LIVER, S-9, AROCLOR 1254 (10%), Method: PREINCUBATION) “inactive; negative”; (Test System: AMES SALMONELLA TYPHIMURIUM, Strain/Indicator: TA1535, Metabolic Activation: HAMSTER, LIVER, S-9, AROCLOR 1254 (30%), Method: PREINCUBATION) “inactive; negative”; under setting [3], “inactive; negative”; (Test System: AMES SALMONELLA TYPHIMURIUM, Strain/Indicator: TA1535, Metabolic Activation: NONE, Method: STANDARD PLATE) “inactive; negative”; (Test System: AMES SALMONELLA TYPHIMURIUM, Strain/Indicator: TA1535, Metabolic Activation: RAT, LIVER, S-9, AROCLOR 1254 (10%), Method: PREINCUBATION) “inactive; negative”. The mutagenic call (Test System: AMES SALMONELLA TYPHIMURIUM, Strain/Indicator: TA1535, Metabolic Activation: RAT, LIVER, S-9, AROCLOR 1254 (30%), Method: PREINCUBATION) is “inactive; negative”; the mutagenic call (Test System: AMES SALMONELLA TYPHIMURIUM, Strain/Indicator: TA1535, Metabolic Activation: RAT, LIVER, S-9, AROCLOR 1254, Method: STANDARD PLATE) is “inactive; negative”; the mutagenic call (Test System: AMES SALMONELLA TYPHIMURIUM, Strain/Indicator: TA1537, Metabolic Activation: HAMSTER, LIVER, S-9, AROCLOR 1254 (30%), Method: PREINCUBATION) is “inactive; negative”; the mutagenic call under setting [4] is “inactive; negative”; the mutagenic call (Test System: AMES SALMONELLA TYPHIMURIUM, Strain/Indicator: TA1537, Metabolic Activation: NONE, Method: STANDARD PLATE) is “inactive; negative”; the mutagenic call (Test System: AMES SALMONELLA TYPHIMURIUM, Strain/Indicator: TA1537, Metabolic Activation: RAT, LIVER, S-9, AROCLOR 1254 (30%), Method: PREINCUBATION) was “inactive; negative”. Also, the mutagenic call by setting is: (Test System: AMES SALMONELLA TYPHIMURIUM, Strain/Indicator: TA1537, Metabolic Activation: RAT, LIVER, S-9, AROCLOR 1254, Method: STANDARD PLATE) “inactive; negative”; (Test System: AMES SALMONELLA TYPHIMURIUM, Strain/Indicator: TA1538, Metabolic Activation: NONE, Method: STANDARD PLATE) “inactive; negative”; (Test System: AMES SALMONELLA TYPHIMURIUM, Strain/Indicator: TA1538, Metabolic Activation: RAT, LIVER, S-9, AROCLOR 1254, Method: STANDARD PLATE) “inactive; negative”.

For the compound `ClCCOCCCl`, the mutagenic call runs as follows: (End Point: IN VITRO CHROMOSOMAL ABERRATIONS, Test System: CHO CELLS, Metabolic Activation: NONE) “inactive; negative”; (End Point: IN VITRO CHROMOSOMAL ABERRATIONS, Test System: CHO CELLS, Metabolic Activation: RAT, LIVER, S-9, AROCLOR 1254) “inactive; negative”; (Test System: AMES SALMONELLA TYPHIMURIUM, Strain/Indicator: TA98, Metabolic Activation: HAMSTER, LIVER, S-9, PHENOBARBITAL AND BETA-NAPHTHOFLAVONE, Method: PREINCUBATION) “inactive; negative”; under setting [1], “inactive; negative”; (Test System: AMES SALMONELLA TYPHIMURIUM, Strain/Indicator: TA98, Metabolic Activation: RAT, LIVER, S-9, PHENOBARBITAL AND BETA-NAPHTHOFLAVONE, Method: PREINCUBATION) “inactive; negative”; (Test System: AMES SALMONELLA TYPHIMURIUM, Strain/Indicator: TA100, Metabolic Activation: HAMSTER, LIVER, S-9, PHENOBARBITAL AND BETA-NAPHTHOFLAVONE, Method: PREINCUBATION) “inactive; negative”. Also, the mutagenic call reads like this: (Test System: AMES SALMONELLA TYPHIMURIUM, Strain/Indicator: TA100, Metabolic Activation: NONE, Method: DESICCATOR) “active; positive”; under setting [2], “inactive; negative”; (Test System: AMES SALMONELLA TYPHIMURIUM, Strain/Indicator: TA100, Metabolic Activation: RAT, LIVER, S-9, PHENOBARBITAL AND BETA-NAPHTHOFLAVONE, Method: PREINCUBATION) “inactive; negative”; under setting [3], “active; positive”; (Test System: AMES SALMONELLA TYPHIMURIUM, Strain/Indicator: TA1537, Metabolic Activation: HAMSTER, LIVER, S-9, PHENOBARBITAL AND BETA-NAPHTHOFLAVONE, Method: PREINCUBATION) “inactive; negative”; under setting [4], “inactive; negative”. The mutagenic call (Test System: AMES SALMONELLA TYPHIMURIUM, Strain/Indicator: TA1537, Metabolic Activation: RAT, LIVER, S-9, PHENOBARBITAL AND BETA-NAPHTHOFLAVONE, Method: PREINCUBATION) was “inactive; negative”; the mutagenic call (Test System: E. COLI, Strain/Indicator: WP2UVRA, Metabolic Activation: NONE, Method: PREINCUBATION) is “inactive; negative”; the mutagenic call (Test System: E. COLI, Strain/Indicator: WP2UVRA, Metabolic Activation: RAT, LIVER, S-9, PHENOBARBITAL AND BETA-NAPHTHOFLAVONE, Method: PREINCUBATION) is “inactive; negative”.
